“Also recorded” adds a separate entry of the source.
Tests used:
P388D1 cells [1] = assay: Cathepsin B distribution in P388D1 cells lacking or overexpressing M6P/IGF2R; assay type: cell-based, mouse
Text: Intracellular Trafficking Materials Retinoic acid was obtained from Sigma Chem. Co. (St. Louis, Mo.). The synthetic retinoids used (AGN193109, TTNPB) were produced by Allergan Inc. (Irvine, Calif.). Stably-transfected P388D1 cells re-expressing the M6P/IGF2R were provided by Dr. William S. Sly (St. Louis University). The rabbit polyclonal antibody against the rat M6P/IGF-II receptor was a gift from Dr. R.G. MacDonald (University of Nebraska). The rabbit polyclonal anti-rat cathepsin B antibody was purchased from Upstate Biotechnology (N.Y.). The FITC-conjugated goat anti-rabbit IgG was obtained from Jackson ImmunoResearch Laboratories (West Grove, Pa.). Neonatal rat cardiac fibroblasts were prepared from 1-day-old rats using the Neonatal Cardiomyocyte Isolation System (Worthington) and grown on glass coverslips in F-10 nutrient mixture with 10% horse serum and 5% fetal bovine serum (FBS). Cells were used in experiments after 3-5 days of culture. Mouse macrophage P3,88D1 cells were cultured in minimum essential medium-a (MEM-α) supplemented with 10% FBS.
Cells were then fixed with 4% paraformaldehyde in phosphate-buffered saline (PBS) for 30 min. The cells were washed in PBS, permeabilized with 0.1% Triton X-100 in PBS for 5 min, and then incubated with either polyclonal anti-rat M6P/IGF2R antibody or anti-rat cathepsin B antibody (diluted 1:200) at room temperature for 1 h. […]

P388D1 cells [2] = assay: Morphology, growth and apoptosis of P388D1 cells overexpressing M6P/IGF2R; assay type: cell-based, mouse; conditions: for Cell morphology: 1 μM RA for 24 hours
Procedure: FIG. 10 is a graph showing the effect of RA treatment on growth rate of P388D1 cells overexpressing M6P/IGF2R protein and P388D1 controls. Open circles, vector control cells without RA treatment; closed circles, vector control cells with 1 μM RA treatment; open triangles, overexpressing cells without RA treatment; closed triangles overexpressing cells with 1 μM RA treatment.
We examined M6P/IGF2R-mediated effects of RA in mouse macrophage P388D1 cells, which are the best characterized cells that lack the M6P/IGF2R protein.

M6P/IGF2R = M6P/IGF2R (Rattus norvegicus, UniProt G3V824); assay: Immunofluorescence of M6P/IGF2R distribution in fibroblasts; assay type: cell-based; design: endogenous in cells; host or cells: primary neonatal rat cardiac fibroblasts; conditions: RA 0.25-1 μM for 2-3 h; neonatal rat fibroblasts
Text: FIGS. 7A and 7B are photo micrographs showing the effect of retinoic acid on the distribution of the M6P/IGF2R in neonatal rat fibroblasts. […] The receptor was concentrated primarily in the perinuclear structure (probably the TGN area). […] Bar represents 4 μm.
To determine if RA affects intracellular trafficking of the M6P/IGF2R, distribution of the receptor in neonatal rat fibroblasts with or without RA treatment was visualized by immunofluorescence. The primary antibody used to target the receptor was a polyclonal anti-rat M6P/IGF2R (full length) rabbit IgG with high specificity. A non-immuno-rabbit IgG was used as a negative control. As indicated by fluorescence (FIGS. 7A and 7B), the M6P/IGF2R in the fibroblasts is normally concentrated primarily in the perinuclear structure (probably the TGN). […] This indicated a potentiating effect of RA on the trafficking of the M6P/IGF2R from the TGN to the endosomes/lysosomes.
Intracellular Trafficking Materials Retinoic acid was obtained from Sigma Chem. Co. (St. Louis, Mo.). The synthetic retinoids used (AGN193109, TTNPB) were produced by Allergan Inc. (Irvine, Calif.). Stably-transfected P388D1 cells re-expressing the M6P/IGF2R were provided by Dr. William S. Sly (St. Louis University). The rabbit polyclonal antibody against the rat M6P/IGF-II receptor was a gift from Dr. R.G. MacDonald (University of Nebraska). […]

M6P/IGF2R, sequence (G3V824 36-2481): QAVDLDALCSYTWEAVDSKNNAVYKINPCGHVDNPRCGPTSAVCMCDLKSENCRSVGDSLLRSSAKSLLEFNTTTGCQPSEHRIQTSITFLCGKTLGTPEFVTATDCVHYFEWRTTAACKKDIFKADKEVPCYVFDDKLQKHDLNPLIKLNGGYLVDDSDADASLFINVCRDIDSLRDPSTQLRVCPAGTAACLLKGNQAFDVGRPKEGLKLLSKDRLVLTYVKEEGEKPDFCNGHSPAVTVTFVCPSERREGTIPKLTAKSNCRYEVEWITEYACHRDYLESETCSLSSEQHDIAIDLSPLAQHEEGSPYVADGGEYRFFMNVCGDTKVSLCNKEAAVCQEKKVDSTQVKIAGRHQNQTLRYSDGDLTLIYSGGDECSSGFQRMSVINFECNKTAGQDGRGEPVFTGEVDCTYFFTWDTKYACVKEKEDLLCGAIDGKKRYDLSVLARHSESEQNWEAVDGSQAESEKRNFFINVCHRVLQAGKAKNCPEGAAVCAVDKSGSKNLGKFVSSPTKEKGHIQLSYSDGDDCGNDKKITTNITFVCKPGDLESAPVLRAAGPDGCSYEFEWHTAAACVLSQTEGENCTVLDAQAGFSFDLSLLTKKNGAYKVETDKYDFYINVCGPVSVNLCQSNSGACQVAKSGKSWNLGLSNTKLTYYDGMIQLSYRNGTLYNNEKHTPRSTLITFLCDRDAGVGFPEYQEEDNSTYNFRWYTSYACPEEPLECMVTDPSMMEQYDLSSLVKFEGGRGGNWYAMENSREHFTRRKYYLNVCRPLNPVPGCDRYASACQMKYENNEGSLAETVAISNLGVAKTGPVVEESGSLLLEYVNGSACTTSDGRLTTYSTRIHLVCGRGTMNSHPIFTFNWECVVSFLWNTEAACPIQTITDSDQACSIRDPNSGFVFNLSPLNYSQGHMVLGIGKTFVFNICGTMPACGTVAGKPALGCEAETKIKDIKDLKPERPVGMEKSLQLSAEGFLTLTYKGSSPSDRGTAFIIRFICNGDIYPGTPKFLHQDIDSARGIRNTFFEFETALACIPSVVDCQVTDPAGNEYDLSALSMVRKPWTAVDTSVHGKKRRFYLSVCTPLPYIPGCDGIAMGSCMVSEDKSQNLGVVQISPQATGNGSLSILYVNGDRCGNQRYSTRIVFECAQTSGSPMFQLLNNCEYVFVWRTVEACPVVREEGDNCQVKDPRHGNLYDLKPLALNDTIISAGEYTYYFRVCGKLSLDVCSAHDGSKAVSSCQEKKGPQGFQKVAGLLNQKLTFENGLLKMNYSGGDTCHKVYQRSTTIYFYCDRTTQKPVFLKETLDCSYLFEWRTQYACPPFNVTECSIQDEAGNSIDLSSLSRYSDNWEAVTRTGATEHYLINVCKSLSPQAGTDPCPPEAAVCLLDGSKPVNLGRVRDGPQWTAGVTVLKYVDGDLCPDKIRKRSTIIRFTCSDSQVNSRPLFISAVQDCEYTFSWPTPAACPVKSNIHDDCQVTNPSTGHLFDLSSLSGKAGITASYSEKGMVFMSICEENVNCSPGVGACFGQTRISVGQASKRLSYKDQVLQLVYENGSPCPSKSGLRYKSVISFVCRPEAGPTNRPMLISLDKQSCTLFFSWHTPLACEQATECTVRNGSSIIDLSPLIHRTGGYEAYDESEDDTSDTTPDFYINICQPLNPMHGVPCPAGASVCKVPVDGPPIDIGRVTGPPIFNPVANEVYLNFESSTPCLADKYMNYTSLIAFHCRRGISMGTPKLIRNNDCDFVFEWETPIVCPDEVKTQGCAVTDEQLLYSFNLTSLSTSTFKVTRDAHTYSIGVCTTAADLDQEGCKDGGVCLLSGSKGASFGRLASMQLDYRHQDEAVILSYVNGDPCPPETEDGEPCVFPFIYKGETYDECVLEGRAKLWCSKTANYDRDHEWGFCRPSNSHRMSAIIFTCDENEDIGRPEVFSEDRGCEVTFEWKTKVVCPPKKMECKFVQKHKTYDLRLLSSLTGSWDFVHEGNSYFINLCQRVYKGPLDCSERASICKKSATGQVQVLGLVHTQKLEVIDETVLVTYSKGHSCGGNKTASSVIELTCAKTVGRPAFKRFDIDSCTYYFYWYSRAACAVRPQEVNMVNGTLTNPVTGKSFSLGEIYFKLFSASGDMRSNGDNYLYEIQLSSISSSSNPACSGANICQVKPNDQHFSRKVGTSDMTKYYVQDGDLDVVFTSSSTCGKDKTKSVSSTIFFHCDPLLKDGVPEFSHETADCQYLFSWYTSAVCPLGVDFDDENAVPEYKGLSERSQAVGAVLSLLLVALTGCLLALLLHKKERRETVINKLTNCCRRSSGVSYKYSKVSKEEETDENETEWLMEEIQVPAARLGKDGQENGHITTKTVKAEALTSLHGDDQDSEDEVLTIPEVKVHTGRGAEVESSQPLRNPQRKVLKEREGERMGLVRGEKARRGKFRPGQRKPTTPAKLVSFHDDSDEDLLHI

CC1=C(/C=C/C(C)=C/C=C/C(C)=C/C(=O)O)C(C)(C)CCC1 [RA, all-trans-retinoic acid]
RA-induced cathepsin B translocation (P388D1 cells [1]; M6P/IGF2R-deficient P388D1 cells): No significant effect
RA-induced cathepsin B translocation (P388D1 cells [1]; stably-transfected P388D1 cells overexpressing M6P/IGF2R): remarkable cathepsin B translocation
Cell morphology (P388D1 cells [2]; P388D1 cells overexpressing M6P/IGF2R): remarkable changes in cell morphology
Cell morphology (P388D1 cells [2]; control P388D1 cells transformed with vector alone): no such changes
Cell growth (proliferation) (P388D1 cells [2]; 1 μM RA, P388D1 cells overexpressing M6P/IGF2R): grew much more slowly
Apoptotic cells (fluorescence staining of fragmented DNA) (P388D1 cells [2]; RA, overexpressing P388D1 cells vs controls): much higher number of apoptotic cells
Intracellular distribution of M6P/IGF2R (M6P/IGF2R): translocated from perinuclear area to cytoplasmic vesicles; also recorded: movement of the receptors from the perinuclear area to the cytoplasmic vesicles
